Measured values from ChEMBL document CHEMBL1145292, “Synthesis and activity of novel bile-acid conjugated glucocorticoid receptor antagonists” (Bioorg Med Chem Lett, 2006).

Tests used:
Glucocorticoid receptor [1] = target: T1, Glucocorticoid receptor (Homo sapiens, UniProt P04150); assay: Binding affinity to human GR
T1 sequence (P04150 whole entry): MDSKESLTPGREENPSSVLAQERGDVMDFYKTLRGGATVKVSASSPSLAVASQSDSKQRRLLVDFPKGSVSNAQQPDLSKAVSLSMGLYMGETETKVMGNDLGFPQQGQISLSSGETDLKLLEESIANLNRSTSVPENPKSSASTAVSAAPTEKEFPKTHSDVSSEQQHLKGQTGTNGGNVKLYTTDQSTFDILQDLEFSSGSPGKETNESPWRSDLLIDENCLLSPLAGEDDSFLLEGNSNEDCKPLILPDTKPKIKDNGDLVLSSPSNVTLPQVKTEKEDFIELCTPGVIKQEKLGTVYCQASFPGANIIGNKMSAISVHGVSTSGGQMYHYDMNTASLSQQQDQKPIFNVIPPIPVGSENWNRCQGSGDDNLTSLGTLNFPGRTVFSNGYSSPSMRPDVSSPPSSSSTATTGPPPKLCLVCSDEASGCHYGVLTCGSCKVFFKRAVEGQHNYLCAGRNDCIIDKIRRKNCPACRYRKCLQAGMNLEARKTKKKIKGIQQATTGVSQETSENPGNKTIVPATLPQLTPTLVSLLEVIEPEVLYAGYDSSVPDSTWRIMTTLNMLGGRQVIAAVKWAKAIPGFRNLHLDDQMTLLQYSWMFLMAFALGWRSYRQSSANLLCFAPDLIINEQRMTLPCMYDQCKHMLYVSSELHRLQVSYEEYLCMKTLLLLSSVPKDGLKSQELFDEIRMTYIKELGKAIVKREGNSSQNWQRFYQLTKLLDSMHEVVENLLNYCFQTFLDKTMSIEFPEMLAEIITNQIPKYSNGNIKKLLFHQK

Glucocorticoid receptor [2] = target: T1, Glucocorticoid receptor; assay: Activity at GR expressed in CHO cells assessed as decrease in dexamethasone-stimulated alkaline phosphatase production by GRAF assay; type: cell-based
[3] = Stability in rat liver microsomes after 20 mins; type: ADME, Microsome; details: read-out: Stability
[4] = Protein binding in rat plasma; type: ADME, cell-free; details: read-out: PPB (converted)
[5] = Plasma concentration in Sprague-Dawley rat after 7 hrs at 100 mg/kg, po; type: ADME, organism-based; parameters: dose 100 mg/kg, route oral
Rattus norvegicus [6] = assay: Liver concentration in Sprague-Dawley rat after 7 hrs at 100 mg/kg, po; type: ADME, organism-based; parameters: dose 100 mg/kg, route oral; details: in vivo
Rattus norvegicus [7] = assay: Inhibition of prednisilone-stimulated TAT production in Sprague-Dawley rat at 100 mg/kg, po; type: functional
Rattus norvegicus [8] = assay: Inhibition of prednisilone-induced glycogen deposition in Sprague-Dawley rat at 100 mg/kg, po; type: functional
Rattus norvegicus [9] = assay: Inhibition of prednisilone-induced lymphopenia in Sprague-Dawley rat at 100 mg/kg, po; type: functional

With `CC#C[C@]1(O)CC[C@H]2[C@@H]3CCC4=CC(=O)CCC4=C3[C@@H](c3ccc(SC)cc3)C[C@@]21C` the IC50 (Glucocorticoid receptor [1]) was 0.6 nM and the IC50 (Glucocorticoid receptor [2]) was 1.8 nM.
For `CC#C[C@]1(O)CC[C@H]2[C@@H]3CCC4=CC(=O)CCC4=C3[C@@H](c3ccc(N(C)CCO[C@H]4CC[C@@]5(C)[C@@H](C4)C[C@@H](O)[C@@H]4[C@@H]5C[C@H](O)[C@]5(C)[C@@H]([C@H](C)CCC(=O)O)CC[C@@H]45)cc3)C[C@@]21C`, the IC50 (Glucocorticoid receptor [1]) was 1.2 nM, the IC50 (Glucocorticoid receptor [2]) was 10 nM and the remaining at 20 min [3] was 98%. For the same compound, the fraction unbound [4] was 0.041, the concentration at 7 h [5] was 4.5 µM and the Drug uptake (Rattus norvegicus [6]) was 26.5%. The inhibition in vivo at 100 mg/kg (Rattus norvegicus [7]) was 72%, the inhibition in vivo at 100 mg/kg (Rattus norvegicus [8]) was 86% and the inhibition in vivo at 100 mg/kg (Rattus norvegicus [9]) was 9%.
`CC#C[C@]1(O)CC[C@H]2[C@@H]3CCC4=CC(=O)CCC4=C3[C@@H](c3ccc(-c4ccc(OC)cc4)cc3)C[C@@]21C` gave an IC50 (Glucocorticoid receptor [1]) of 0.7 nM, an IC50 (Glucocorticoid receptor [2]) of 4.2 nM and a remaining at 20 min [3] of 96%.
For `CC#C[C@]1(O)CC[C@H]2[C@@H]3CCC4=CC(=O)CCC4=C3[C@@H](c3ccc(OC)cc3C)C[C@@]21C`, the IC50 (Glucocorticoid receptor [1]) was 9 nM and the IC50 (Glucocorticoid receptor [2]) was 32 nM.
Work on `CC#C[C@]1(O)CC[C@H]2[C@@H]3CCC4=CC(=O)CCC4=C3[C@@H](c3c(F)cc(OC)cc3F)C[C@@]21C` yielded an IC50 (Glucocorticoid receptor [1]) of 0.7 nM and an IC50 (Glucocorticoid receptor [2]) of 10.1 nM.
With `CC#C[C@]1(O)CC[C@H]2[C@@H]3CCC4=CC(=O)CCC4=C3[C@@H](c3cc(C)c(OC)c(C)c3)C[C@@]21C` the IC50 (Glucocorticoid receptor [1]) was 0.4 nM and the IC50 (Glucocorticoid receptor [2]) was 2.8 nM.
Work on `CC#C[C@]1(O)CC[C@H]2[C@@H]3CCC4=CC(=O)CCC4=C3[C@@H](c3cc(OC)c(OC)c(OC)c3)C[C@@]21C` yielded an IC50 (Glucocorticoid receptor [1]) of 60.7 nM.
In the case of `CC#C[C@]1(O)CC[C@H]2[C@@H]3CCC4=CC(=O)CCC4=C3[C@@H](c3c(F)cc(OC)cc3OC)C[C@@]21C`, the IC50 (Glucocorticoid receptor [1]) is reported as 6.1 nM and the IC50 (Glucocorticoid receptor [2]) is reported as 43 nM.
For `CC#C[C@]1(O)CC[C@H]2[C@@H]3CCC4=CC(=O)CCC4=C3[C@@H](c3ccc(OC)cc3)C[C@@]21C`, the IC50 (Glucocorticoid receptor [1]) was 0.9 nM and the IC50 (Glucocorticoid receptor [2]) was 7.6 nM.
`CC#C[C@]1(O)CC[C@H]2[C@@H]3CCC4=CC(=O)CCC4=C3[C@@H](c3cc(F)c(OC)cc3F)C[C@@]21C` showed an IC50 (Glucocorticoid receptor [1]) of 3.2 nM and an IC50 (Glucocorticoid receptor [2]) of 15 nM.
`CC#C[C@]1(O)CC[C@H]2[C@@H]3CCC4=CC(=O)CCC4=C3[C@@H](c3ccc(Oc4ccccc4)cc3)C[C@@]21C` showed an IC50 (Glucocorticoid receptor [1]) of 1.5 nM and an IC50 (Glucocorticoid receptor [2]) of 18.8 nM.
Compound `CC#C[C@]1(O)CC[C@H]2[C@@H]3CCC4=CC(=O)CCC4=C3[C@@H](c3ccc(OC)c(C)c3)C[C@@]21C` has an IC50 (Glucocorticoid receptor [1]) of 0.1 nM, an IC50 (Glucocorticoid receptor [2]) of 1.1 nM and a remaining at 20 min [3] of 87%. The concentration at 7 h [5] was 4.8 µM, the Drug uptake (Rattus norvegicus [6]) was 18.1% and the inhibition in vivo at 100 mg/kg (Rattus norvegicus [7]) was 97%. For the same compound, the inhibition in vivo at 100 mg/kg (Rattus norvegicus [9]) was 67%.
`C=CCOc1c(C)cc([C@H]2C[C@@]3(C)[C@@H](CC[C@@]3(O)C#CC)[C@@H]3CCC4=CC(=O)CCC4=C32)cc1Cl` gave an IC50 (Glucocorticoid receptor [1]) of 1.5 nM and an IC50 (Glucocorticoid receptor [2]) of 20.9 nM.
`CC#C[C@]1(O)CC[C@H]2[C@@H]3CCC4=CC(=O)CCC4=C3[C@@H](c3c(OC)cc(OC)cc3OC)C[C@@]21C` showed an IC50 (Glucocorticoid receptor [1]) of 481 nM.
For `CC#C[C@]1(O)CC[C@H]2[C@@H]3CCC4=CC(=O)CCC4=C3[C@@H](c3ccc(OCCO[C@H]4CC[C@@]5(C)[C@@H](C4)C[C@@H](O)[C@@H]4[C@@H]5C[C@H](O)[C@]5(C)[C@@H]([C@H](C)CCC(=O)O)CC[C@@H]45)c(C)c3)C[C@@]21C`, the IC50 (Glucocorticoid receptor [1]) was 3.1 nM, the IC50 (Glucocorticoid receptor [2]) was 30.7 nM and the remaining at 20 min [3] was 95%. For the same compound, the fraction unbound [4] was 0.017, the concentration at 7 h [5] was 4.5 µM and the Drug uptake (Rattus norvegicus [6]) was 22.2%. The inhibition in vivo at 100 mg/kg (Rattus norvegicus [7]) was 31%, the inhibition in vivo at 100 mg/kg (Rattus norvegicus [8]) was 0% and the inhibition in vivo at 100 mg/kg (Rattus norvegicus [9]) was 20%.
Compound `CC#C[C@]1(O)CC[C@H]2[C@@H]3CCC4=CC(=O)CCC4=C3[C@@H](c3cc(C)c(OCCO[C@H]4CC[C@@]5(C)[C@@H](C4)C[C@@H](O)[C@@H]4[C@@H]5C[C@H](O)[C@]5(C)[C@@H]([C@H](C)CCC(=O)O)CC[C@@H]45)c(C)c3)C[C@@]21C` has an IC50 (Glucocorticoid receptor [1]) of 4.9 nM, an IC50 (Glucocorticoid receptor [2]) of 200 nM and an inhibition in vivo at 100 mg/kg (Rattus norvegicus [7]) of 0%. The inhibition in vivo at 100 mg/kg (Rattus norvegicus [8]) was 12% and the inhibition in vivo at 100 mg/kg (Rattus norvegicus [9]) was 0%.
For `C=CCOc1ccc([C@H]2C[C@@]3(C)[C@@H](CC[C@@]3(O)C#CC)[C@@H]3CCC4=CC(=O)CCC4=C32)cc1Cl`, the IC50 (Glucocorticoid receptor [1]) was 0.4 nM and the IC50 (Glucocorticoid receptor [2]) was 4.7 nM.
Work on `CC#C[C@]1(O)CC[C@H]2[C@@H]3CCC4=CC(=O)CCC4=C3[C@@H](c3ccc(-c4ccc(OCCO[C@H]5CC[C@@]6(C)[C@@H](C5)C[C@@H](O)[C@@H]5[C@@H]6C[C@H](O)[C@]6(C)[C@@H]([C@H](C)CCC(=O)O)CC[C@@H]56)cc4)cc3)C[C@@]21C` yielded an IC50 (Glucocorticoid receptor [1]) of 2.5 nM, an IC50 (Glucocorticoid receptor [2]) of 23.5 nM and a remaining at 20 min [3] of 100%. The inhibition in vivo at 100 mg/kg (Rattus norvegicus [7]) was 44%, the inhibition in vivo at 100 mg/kg (Rattus norvegicus [8]) was 51% and the inhibition in vivo at 100 mg/kg (Rattus norvegicus [9]) was 40%.
Work on `CC#C[C@]1(O)CC[C@H]2[C@@H]3CCC4=CC(=O)CCC4=C3[C@@H](c3ccc(O)c(C)c3)C[C@@]21C` yielded an IC50 (Glucocorticoid receptor [1]) of 4.5 nM and an IC50 (Glucocorticoid receptor [2]) of 28.6 nM.
In the case of `CC#C[C@]1(O)CC[C@H]2[C@@H]3CCC4=CC(=O)CCC4=C3[C@@H](c3ccc(N(C)C)cc3)C[C@@]21C` [MIFEPRISTONE], the remaining at 20 min [3] is reported as 70%, the fraction unbound [4] is reported as 0.044 and the concentration at 7 h [5] is reported as 3.9 µM. For the same compound, the Drug uptake (Rattus norvegicus [6]) was 26.5%, the inhibition in vivo at 100 mg/kg (Rattus norvegicus [7]) was 101% and the inhibition in vivo at 100 mg/kg (Rattus norvegicus [8]) was 77%. The inhibition in vivo at 100 mg/kg (Rattus norvegicus [9]) was 104%.
